Each block holds one compound with its values, some of them ahead of it. Active and inactive are the calls of the source.
Columns and labels:
[1] = HepG2 cell cytotoxicity, dose response, cytotoxicity control, dry powder samples (AID 720568); format: functional, cell-based
[2] = HeLa cell cytotoxicity, dose response, cytotoxicity control for MgcRacGAP inhibitor project (AID 624300); format: functional
[3] = ARNT/TACC3 interaction disruptors, potency, confirmation, biochemical, AlphaScreen, cherry-picked samples (AID 651703); format: functional, Homo sapiens;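 note: His-tagged ARNT PAS-B domain paired with GST-TACC3 E629A dimer coactivator fragment; potency of inhibitors that break up the complex and lower AlphaScreen signal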
[4] = growth suppression of beta-catenin-knockout colon cells, dose response, cell-based, HCT116, human colon tumor (AID 1045); format: functional;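 note: HCT116 colon tumor cells with beta catenin knocked out; cells exposed to compound for 60 hours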
[5] = growth suppression of PTEN-null colon cells, dose response, cell-based, HCT116 PTEN knockout (AID 1047); format: functional;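 note: HCT116 colon tumor cells with PTEN knocked out; cells exposed to compound for 60 hours before readout; potency for loss of cell viability measured by luminescence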
[6] = biological target: T1, Zinc finger protein mex-5 (Caenorhabditis elegans, UniProt Q9XUB2); assay: MEX-5/TCR-2 RNA interaction inhibitors, dose response, biochemical, C. elegans, fluorescence polarization (AID 1960)
T1 sequence (Q9XUB2 whole entry): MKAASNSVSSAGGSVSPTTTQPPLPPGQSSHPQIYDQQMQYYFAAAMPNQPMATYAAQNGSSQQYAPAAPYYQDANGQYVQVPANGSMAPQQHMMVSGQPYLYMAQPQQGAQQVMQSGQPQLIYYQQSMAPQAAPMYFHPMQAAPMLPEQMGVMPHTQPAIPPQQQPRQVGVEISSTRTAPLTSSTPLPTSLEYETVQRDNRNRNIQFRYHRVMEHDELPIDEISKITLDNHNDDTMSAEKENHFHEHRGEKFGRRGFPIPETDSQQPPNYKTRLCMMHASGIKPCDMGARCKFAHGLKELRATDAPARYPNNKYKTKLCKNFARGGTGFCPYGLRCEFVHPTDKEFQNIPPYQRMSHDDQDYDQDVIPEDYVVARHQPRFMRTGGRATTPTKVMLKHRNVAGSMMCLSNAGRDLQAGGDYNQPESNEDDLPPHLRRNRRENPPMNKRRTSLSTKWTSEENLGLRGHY

[7] = C. albicans growth with fluconazole, confirmation, fluorescence, retest (AID 2467); format: functional, cell-based
Genome polyprotein = Genome polyprotein (dengue virus type 2, UniProt P29990); assay: Dengue-2 NS5 methyltransferase inhibitors, primary screen, biochemical, confirmation dose response (AID 588689); format: functional
Genome polyprotein, sequence (P29990 2492-3391 limits assumed): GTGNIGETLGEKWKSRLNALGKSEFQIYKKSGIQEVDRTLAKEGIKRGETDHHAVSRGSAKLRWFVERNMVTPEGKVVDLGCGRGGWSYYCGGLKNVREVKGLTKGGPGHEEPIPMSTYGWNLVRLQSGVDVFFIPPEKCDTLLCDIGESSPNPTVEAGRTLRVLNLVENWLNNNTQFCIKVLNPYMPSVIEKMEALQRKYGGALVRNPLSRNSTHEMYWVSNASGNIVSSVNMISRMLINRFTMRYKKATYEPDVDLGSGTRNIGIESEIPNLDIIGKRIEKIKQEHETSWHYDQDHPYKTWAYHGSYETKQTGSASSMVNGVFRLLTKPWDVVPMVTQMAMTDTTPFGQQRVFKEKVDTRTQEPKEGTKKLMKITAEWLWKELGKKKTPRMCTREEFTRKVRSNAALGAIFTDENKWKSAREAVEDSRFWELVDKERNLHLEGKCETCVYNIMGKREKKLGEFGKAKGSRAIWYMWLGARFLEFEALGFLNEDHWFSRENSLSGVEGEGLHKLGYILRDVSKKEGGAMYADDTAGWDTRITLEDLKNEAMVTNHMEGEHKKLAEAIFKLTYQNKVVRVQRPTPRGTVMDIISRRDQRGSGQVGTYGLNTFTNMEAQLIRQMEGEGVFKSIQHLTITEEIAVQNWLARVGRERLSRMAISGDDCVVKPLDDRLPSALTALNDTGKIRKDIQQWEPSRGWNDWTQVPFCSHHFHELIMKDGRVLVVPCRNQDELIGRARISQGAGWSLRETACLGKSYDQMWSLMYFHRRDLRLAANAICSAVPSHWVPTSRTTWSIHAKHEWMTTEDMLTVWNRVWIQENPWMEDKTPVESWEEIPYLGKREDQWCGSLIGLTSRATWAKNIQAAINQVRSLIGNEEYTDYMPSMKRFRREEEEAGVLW

[8] = biological target: Polyadenylate-binding protein 1 (Homo sapiens, UniProt P11940); assay: PABP1 MLLE–PAM2 interaction inhibitors, dose response, miRNA deadenylation inhibitor project, biochemical, fluorescence polarization, Cy5-PAM2 peptide, secondary (AID 602260); format: functional; conditions: read-out: IC50_Mean
Polyadenylate-binding protein 1, sequence (P11940 whole entry): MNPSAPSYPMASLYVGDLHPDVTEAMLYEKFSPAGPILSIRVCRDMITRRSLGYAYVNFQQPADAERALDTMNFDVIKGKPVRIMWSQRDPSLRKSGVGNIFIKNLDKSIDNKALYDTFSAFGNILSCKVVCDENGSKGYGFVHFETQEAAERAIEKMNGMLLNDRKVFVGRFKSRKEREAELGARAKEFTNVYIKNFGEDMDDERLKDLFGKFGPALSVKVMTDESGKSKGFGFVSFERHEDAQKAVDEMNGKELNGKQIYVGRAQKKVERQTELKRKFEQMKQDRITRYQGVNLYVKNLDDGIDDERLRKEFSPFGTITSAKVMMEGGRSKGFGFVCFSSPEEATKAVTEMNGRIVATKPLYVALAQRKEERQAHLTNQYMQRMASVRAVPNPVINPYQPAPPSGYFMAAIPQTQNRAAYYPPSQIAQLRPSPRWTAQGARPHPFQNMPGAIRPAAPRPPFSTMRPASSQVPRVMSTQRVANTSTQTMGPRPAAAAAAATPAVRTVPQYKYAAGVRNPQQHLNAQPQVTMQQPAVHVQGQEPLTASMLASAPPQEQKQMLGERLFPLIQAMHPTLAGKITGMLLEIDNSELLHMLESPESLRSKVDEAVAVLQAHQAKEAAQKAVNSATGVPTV

Estrogen receptor = biological target: T2, Estrogen receptor (Homo sapiens, UniProt P03372);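 note: potency for inhibiting coactivator peptide recruitment to the receptor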
T2 sequence (P03372 whole entry): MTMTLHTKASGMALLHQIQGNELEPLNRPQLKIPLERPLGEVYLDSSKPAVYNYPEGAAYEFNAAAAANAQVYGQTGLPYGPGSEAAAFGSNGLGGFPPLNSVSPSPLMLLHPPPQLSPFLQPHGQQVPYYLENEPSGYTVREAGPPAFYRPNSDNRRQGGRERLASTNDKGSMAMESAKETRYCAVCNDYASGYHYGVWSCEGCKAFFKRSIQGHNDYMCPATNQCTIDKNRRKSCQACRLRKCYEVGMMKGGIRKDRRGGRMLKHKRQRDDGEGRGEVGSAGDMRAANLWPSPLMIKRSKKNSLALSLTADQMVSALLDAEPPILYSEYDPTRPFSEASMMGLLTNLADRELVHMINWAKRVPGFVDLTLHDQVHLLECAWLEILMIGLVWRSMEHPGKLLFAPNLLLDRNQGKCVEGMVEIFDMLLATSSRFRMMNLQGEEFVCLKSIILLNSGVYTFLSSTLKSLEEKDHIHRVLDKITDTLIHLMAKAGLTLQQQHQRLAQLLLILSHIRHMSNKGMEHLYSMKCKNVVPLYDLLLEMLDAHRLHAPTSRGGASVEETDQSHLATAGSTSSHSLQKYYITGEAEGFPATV

Troponin, cardiac muscle = Troponin, cardiac muscle (Homo sapiens, UniProt P19429+P45379+P63316); assay: inhibitors of cardiac thin filament calcium sensitivity, dose response, biochemical, fluorescence, cardiac regulated thin filaments, triplicate IC50 (AID 504742); format: protein-complex assay
[9] = biological target: T3, RNA-binding protein pos-1 (Caenorhabditis elegans, UniProt G5EF15); assay: inhibitors of POS-1/mex-3 RNA binding, dose response, biochemical, fluorescence polarization (AID 1964);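 note: purified POS-1 fused to maltose binding protein made in E. coli; potency of compounds blocking POS-1 binding to fluorescent RNA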
T3 sequence (G5EF15 whole entry): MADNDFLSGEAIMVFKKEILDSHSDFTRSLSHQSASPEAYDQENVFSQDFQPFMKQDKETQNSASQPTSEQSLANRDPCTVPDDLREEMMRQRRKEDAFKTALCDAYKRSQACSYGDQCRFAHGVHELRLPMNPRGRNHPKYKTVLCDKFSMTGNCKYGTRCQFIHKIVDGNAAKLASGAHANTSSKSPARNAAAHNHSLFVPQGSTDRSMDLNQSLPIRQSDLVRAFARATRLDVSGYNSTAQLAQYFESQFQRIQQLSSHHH

Caspase-9 = Caspase-9 (Homo sapiens, UniProt P55211); assay: caspase-9 enzyme inhibition, dose response, selectivity assay for caspase-6 inhibitor project, biochemical, fluorescence, plate reader, cherry-picked samples (AID 743293)
Caspase-9, sequence (P55211 1-315 limits assumed): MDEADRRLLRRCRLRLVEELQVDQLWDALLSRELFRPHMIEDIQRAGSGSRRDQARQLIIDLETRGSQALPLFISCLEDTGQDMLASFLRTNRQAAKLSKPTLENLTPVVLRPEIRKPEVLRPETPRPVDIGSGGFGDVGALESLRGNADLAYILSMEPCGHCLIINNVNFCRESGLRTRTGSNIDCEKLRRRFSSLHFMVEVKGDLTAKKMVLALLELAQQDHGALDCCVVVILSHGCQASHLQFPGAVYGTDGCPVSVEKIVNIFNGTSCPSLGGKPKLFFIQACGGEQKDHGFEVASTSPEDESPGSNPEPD
Caspase-9, sequence (P55211 331-416 limits assumed): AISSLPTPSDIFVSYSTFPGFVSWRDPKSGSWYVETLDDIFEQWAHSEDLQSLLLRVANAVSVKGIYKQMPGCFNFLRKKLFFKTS

[10] = biological target: Tyrosyl-DNA phosphodiesterase 2 (Homo sapiens, UniProt O95551); assay: human TDP2 enzyme inhibitors, dose response, biochemical, epi absorbance, IC50 (AID 743297)
Tyrosyl-DNA phosphodiesterase 2, sequence (O95551 whole entry): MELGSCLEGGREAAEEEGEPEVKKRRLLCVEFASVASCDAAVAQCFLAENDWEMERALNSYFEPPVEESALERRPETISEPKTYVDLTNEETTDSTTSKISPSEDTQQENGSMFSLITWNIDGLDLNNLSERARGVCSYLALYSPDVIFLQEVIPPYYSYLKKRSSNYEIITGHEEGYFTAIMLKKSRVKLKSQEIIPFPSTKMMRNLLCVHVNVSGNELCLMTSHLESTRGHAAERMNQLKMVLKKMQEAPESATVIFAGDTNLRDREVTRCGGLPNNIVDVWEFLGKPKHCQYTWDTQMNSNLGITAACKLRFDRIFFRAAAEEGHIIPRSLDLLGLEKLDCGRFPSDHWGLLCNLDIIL

[11] = biological target: T4, Mannose-6-phosphate isomerase (Homo sapiens, UniProt P34949); assay: human PMI inhibitors, high substrate, primary screen, biochemical, fluorescence intensity, high mannose 6-phosphate (AID 1220)
T4 sequence (P34949 whole entry): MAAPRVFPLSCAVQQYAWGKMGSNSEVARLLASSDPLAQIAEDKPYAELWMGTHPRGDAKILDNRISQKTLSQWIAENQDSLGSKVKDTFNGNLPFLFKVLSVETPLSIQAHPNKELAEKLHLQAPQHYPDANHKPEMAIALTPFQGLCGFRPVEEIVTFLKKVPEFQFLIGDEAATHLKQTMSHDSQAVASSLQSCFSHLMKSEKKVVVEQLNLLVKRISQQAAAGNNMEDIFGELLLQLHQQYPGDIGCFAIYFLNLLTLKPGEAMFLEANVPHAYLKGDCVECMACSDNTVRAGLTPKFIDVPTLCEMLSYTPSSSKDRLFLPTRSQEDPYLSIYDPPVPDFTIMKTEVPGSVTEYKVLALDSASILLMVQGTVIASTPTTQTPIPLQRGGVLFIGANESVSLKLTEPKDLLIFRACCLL

[12] = biological target: T5, Sentrin-specific protease 8 (Homo sapiens, UniProt Q96LD8); format: functional
T5 sequence (Q96LD8 whole entry): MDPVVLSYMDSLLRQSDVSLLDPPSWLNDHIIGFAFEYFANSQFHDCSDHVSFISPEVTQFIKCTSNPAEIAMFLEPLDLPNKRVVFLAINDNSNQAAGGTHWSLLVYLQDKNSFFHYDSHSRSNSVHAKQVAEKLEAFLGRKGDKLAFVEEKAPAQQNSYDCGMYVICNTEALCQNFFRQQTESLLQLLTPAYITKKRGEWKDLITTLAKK

[13] = biological target: Ribosomal protein S6 kinase alpha-3 (Homo sapiens, UniProt P51812); format: functional;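 note: measured within a kinome-wide profiling panel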
Ribosomal protein S6 kinase alpha-3, sequence (P51812 whole entry): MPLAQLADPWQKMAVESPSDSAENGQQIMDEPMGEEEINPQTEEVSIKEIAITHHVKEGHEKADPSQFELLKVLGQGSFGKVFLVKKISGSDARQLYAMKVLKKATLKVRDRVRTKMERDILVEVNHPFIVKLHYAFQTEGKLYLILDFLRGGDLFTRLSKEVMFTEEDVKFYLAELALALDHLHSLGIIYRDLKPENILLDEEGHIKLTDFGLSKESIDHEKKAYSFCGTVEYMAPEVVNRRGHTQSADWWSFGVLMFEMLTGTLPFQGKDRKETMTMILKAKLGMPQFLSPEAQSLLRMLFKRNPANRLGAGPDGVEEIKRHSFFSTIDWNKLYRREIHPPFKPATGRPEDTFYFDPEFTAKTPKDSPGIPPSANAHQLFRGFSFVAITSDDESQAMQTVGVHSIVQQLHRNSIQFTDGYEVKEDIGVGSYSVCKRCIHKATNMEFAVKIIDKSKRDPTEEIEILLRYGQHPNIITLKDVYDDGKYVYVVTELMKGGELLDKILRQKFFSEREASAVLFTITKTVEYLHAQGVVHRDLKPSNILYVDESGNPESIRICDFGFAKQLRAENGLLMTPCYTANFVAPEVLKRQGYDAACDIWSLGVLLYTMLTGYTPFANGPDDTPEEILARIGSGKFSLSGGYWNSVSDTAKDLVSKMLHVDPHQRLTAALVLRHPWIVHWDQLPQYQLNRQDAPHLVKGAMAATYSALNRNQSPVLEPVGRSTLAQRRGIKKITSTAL

Focal adhesion kinase 1 = Focal adhesion kinase 1 (Homo sapiens, UniProt Q05397); format: functional;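 note: measured as one member of a kinome panel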
Focal adhesion kinase 1, sequence (Q05397 whole entry): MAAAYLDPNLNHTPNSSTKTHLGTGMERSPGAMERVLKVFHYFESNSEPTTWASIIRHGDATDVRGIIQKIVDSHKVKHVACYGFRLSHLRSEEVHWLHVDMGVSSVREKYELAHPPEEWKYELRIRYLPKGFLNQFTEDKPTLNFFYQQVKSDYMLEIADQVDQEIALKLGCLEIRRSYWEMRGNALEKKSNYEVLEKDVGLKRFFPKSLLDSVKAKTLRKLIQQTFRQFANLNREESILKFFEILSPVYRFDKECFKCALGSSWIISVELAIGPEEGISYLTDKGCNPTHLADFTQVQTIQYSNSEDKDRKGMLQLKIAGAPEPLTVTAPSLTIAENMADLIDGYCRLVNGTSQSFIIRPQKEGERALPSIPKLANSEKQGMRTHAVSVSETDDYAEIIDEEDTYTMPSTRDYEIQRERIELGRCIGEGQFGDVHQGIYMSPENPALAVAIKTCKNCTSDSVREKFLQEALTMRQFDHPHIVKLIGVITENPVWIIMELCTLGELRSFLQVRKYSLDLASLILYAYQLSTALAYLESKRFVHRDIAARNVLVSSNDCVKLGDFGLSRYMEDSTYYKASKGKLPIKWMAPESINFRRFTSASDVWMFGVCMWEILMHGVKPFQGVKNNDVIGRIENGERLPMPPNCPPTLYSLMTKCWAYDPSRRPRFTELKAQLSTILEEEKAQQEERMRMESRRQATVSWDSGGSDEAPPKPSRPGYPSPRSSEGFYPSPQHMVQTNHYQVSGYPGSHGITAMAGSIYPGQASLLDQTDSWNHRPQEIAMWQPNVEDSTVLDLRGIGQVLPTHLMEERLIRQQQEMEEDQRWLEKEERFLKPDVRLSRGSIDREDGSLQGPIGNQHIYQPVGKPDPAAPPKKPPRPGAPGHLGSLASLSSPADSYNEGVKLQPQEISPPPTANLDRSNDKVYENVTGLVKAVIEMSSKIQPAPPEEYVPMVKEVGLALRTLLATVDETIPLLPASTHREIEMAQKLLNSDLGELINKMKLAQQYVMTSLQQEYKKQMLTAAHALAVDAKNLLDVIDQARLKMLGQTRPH

IC50 [11]: > 50 µM (not active)
Compound: CN(C)c1cc(N/N=C\c2ccccc2)nc(N(C)C)n1
IC50 [12]: 0.368 µM (active)

Ki [13]: 0.0316 µM (active)
Compound: O=C1Nc2cc(-c3ccc(O)cc3)ccc2C1=Cc1ccc[nH]1

Ki (Focal adhesion kinase 1): 2 µM (active)
Compound: NC(COc1cncc(-c2ccc3c(c2)C(=Cc2ccc[nH]2)C(=O)N3)c1)Cc1ccccc1 (stereo not drawn)

Further lines, the compound ahead of its results:

Compound: CCN(CC)CCOc1ccc2c(c1)C(=NNC(=O)c1ccccn1)c1cc(OCCN(CC)CC)ccc1-2
AC50 [1]: 6.14 µM (active)
CC50 [2]: 31.7 µM (active)
AC50 [3]: 109 µM (active)
EC50 [4]: 2.17 µM (active)
EC50 [5]: 3.25 µM (active)

Compound: O=C(O)c1ccc2c(c1)[C@@H]1C=CC[C@@H]1[C@H](c1ccccn1)N2
EC50 [6]: 31.1 µM (inconclusive)
EC50 [7]: > 38 µM (not active)
IC50 (Genome polyprotein): 26.3 µM (active)
IC50 [8]: > 66 µM (inactive)
IC50 (Estrogen receptor): 9.53 µM (active)
IC50 (Troponin, cardiac muscle): > 71.5 µM (inactive)
EC50 [9]: 4.61 µM (inconclusive)

Compound: Oc1nc(Nc2ccc(F)cc2)cc2ccccc12
AC50 (Caspase-9): 3.04 µM (active)
IC50 [10]: 7.66 µM (active)
